{"source": "paper PMC6274786", "about": "(International Journal of Molecular Sciences, 2018)", "key": {"HEK-293 cell line": {"system": "HEK-293 cell line", "experiment": "Antiproliferative assay (MTS), HEK-293", "format": "cell-based, human", "settings": "72 h incubation", "description": "(§1) Human embryonic kidney (HEK)-293 cell line (ATCC CRL-1573) was kindly donated by Prof. Dr. […] (Pharmaceutical Institute, Pharmaceutical Chemistry I, University of Bonn). Hepatoma HepG2 (ATCC HB-8065) cell line was kindly donated by the Department of Pharmacological Screening, Jagiellonian University Medical College. The cell cultures' growth conditions in presence of H3R antagonist 4 were applied as described before. The cells' viability was assessed after 72 h of incubation with H3R antagonist and the following references: doxorubicin (Sigma-Aldrich) and carbonyl cyanide 3-chlorophenylhydrazone (CCCP) (Sigma-Aldrich). CellTiter 96® AQueous non-radioactive cell proliferation assay (MTS) was purchased from Promega® and added to each well in the volume of 20 μL. The cells were then incubated for 2-5 h. The microplate reader EnSpire (PerkinElmer Ltd., Waltham, MA, USA) was used to measure the absorbance at 490 nm."}, "PTZ-induced seizure": {"system": "PTZ-induced seizure", "experiment": "Pentylenetetrazole (PTZ)-induced seizure", "format": "in vivo, Wistar rats", "description": "(§2) In this study and according to previously used protocols, two chemical agents have been used to induce seizures, namely pentylenetetrazole (PTZ, 60 mg/kg, i.p.) and strychnine (STR, 3.5 mg/kg, i.p.). PTZ 60 mg/kg or STR 3.5 mg/kg were administered i.p. to all groups of seven rats (n = 7), that is, animals pretreated with vehicle or test compounds 1–16. Vehicle, VPA (300 mg/kg, i.p.), [26, 47, 48, 49] or test compounds 1–16 (10 mg/kg, i.p.) were systemically administered 30–45 min before PTZ (60 mg/kg, i.p.) or STR (3.5 mg/kg, i.p.) injection, and animals were directly observed for any signs of convulsion for a duration of 30 min. The observed scores as well as percent protection against generalized tonic-clonic seizure (GTCS) were graded and scaled according to the Racine scale (stage 0, no change in behavior; stage 1, stereotype mouthing, eye blinking, and/or mild facial clonus; stage 2, head nodding and/or severe facial clonus; stage 3, myoclonic jerk in forelimbs; stage 4, clonic convulsions in the forelimbs with rearing; stage 5, generalized colonic convulsions associated with loss of balance) to evaluate the protection provided by the respective test compound against seizures. The animals were divided into eighteen groups of seven rats (n = 7) and treated as follows.\n(§3) (1) Control group injected with vehicle + PTZ (SAL group), (2) positive control group in which rats were injected with VPA (300 mg/kg) + PTZ (VPA group), and animals in the test groups (3)–(18) were systemically administered with test compounds 1–16 (10 mg/kg), respectively. An additional PTZ experiment was conducted using three different groups of seven rats (n = 7), the H3R ligand with the most promising protection in PTZ model was administered at doses of 2.5, 5, or 15 mg/kg, i.p. 30–45 min before the PTZ challenge. […] The same experimental procedure was followed in the STR-induced seizure model applying the reference drug VPA, which was used at a dose of 300 mg/kg, i.p. (Figure 3, Table 2)."}, "CYP2D6": {"molecular_target": "CYP2D6 (Homo sapiens, UniProt P10635)", "sequence (P10635 whole entry)": "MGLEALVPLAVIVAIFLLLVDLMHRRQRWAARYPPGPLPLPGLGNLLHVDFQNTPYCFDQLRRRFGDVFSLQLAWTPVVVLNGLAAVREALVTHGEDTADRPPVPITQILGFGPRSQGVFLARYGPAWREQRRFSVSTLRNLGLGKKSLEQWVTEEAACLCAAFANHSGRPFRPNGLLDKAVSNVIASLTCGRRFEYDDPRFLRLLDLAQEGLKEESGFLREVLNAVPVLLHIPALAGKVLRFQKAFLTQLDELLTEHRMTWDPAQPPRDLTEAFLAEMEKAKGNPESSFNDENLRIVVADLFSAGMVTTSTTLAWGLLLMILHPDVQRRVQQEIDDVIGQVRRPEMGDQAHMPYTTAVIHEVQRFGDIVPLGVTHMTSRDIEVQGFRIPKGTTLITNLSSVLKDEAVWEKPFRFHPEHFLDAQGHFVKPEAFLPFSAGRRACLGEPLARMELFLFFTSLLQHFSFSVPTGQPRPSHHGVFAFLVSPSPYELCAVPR", "experiment": "Luminescent CYP2D6 P450-Glo assay", "description": "The metabolic interactions of H3R antagonist 4 were determined by the luminescent P450-Glo™ 3A4 and 2D6 assays purchased from Promega®. All enzymatic reactions were performed according to the manufacturer protocols and as previously described. […] The luminescence was measured with a microplate reader EnSpire (PerkinElmer). The final concentration of H3R antagonist 4 was in the range of 0.1–25 µM, whereas reference inhibitory effects ranged from 0.01 µM to 10 µM. The IC50 values’ calculations were performed by GraphPad Prism™ software (version 5.01, San Diego, CA, USA)."}, "STR-induced seizure": {"system": "STR-induced seizure", "experiment": "Strychnine (STR)-induced seizure", "format": "in vivo, Wistar rats", "settings": "10 mg/kg i.p.", "description": "as §2, §3"}, "hH4R": {"molecular_target": "T1, hH4R (Homo sapiens, UniProt Q9H3N8)", "T1 construct": "expressed in transfected cells; host or cells: Sf9 insect cells (membrane preparations)", "T1 sequence (Q9H3N8 whole entry)": "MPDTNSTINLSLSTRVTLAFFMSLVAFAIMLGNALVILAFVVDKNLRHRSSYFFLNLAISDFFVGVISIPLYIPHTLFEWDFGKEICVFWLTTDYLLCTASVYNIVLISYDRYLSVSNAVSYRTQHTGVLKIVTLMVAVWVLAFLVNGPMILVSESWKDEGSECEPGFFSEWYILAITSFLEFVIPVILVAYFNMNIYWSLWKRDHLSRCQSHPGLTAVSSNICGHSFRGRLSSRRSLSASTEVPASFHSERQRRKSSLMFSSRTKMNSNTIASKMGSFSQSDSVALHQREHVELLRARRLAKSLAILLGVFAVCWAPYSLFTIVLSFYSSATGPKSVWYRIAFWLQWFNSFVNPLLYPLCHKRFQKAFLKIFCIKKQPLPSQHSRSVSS", "experiment": "H4R radioligand displacement assay, Sf9 cell membrane preparations", "format": "binding", "description": "H4R radioligand displacement assays were performed with Sf9 cell membrane preparations, expressing the hH4R, as described previously. Assays ran in triplicates with four appropriate concentrations of the test compound. Data were analyzed by GraphPad Prism 7, using the “one-site competition” equation."}, "MES-induced seizure": {"system": "MES-induced seizure", "experiment": "Maximal electroshock (MES)-induced seizure", "format": "in vivo, Wistar rats", "source_text": "As previously described, the seizures were induced in rats with a 50 Hz alternating current of 120 mA intensity. The current was applied through ear electrodes for 1 s. Protection against the spread of MES-induced seizure was defined as the abolition of the tonic hind limb extension (THLE) component of the seizure. For the first screening of protective effects of test compounds 1–16 in the MES-induced seizure model, the animals were divided into eighteen groups of seven rats (n = 7) as follows; group (1) control group injected with vehicle (SAL), group (2) positive control group in which rats were injected with PHT at a dose of 10 mg/kg (this being the minimal dose of PHT that protected animals against the spread of MES-induced seizures without mortality), and groups (3)–(18) animals in the experimental groups were administered H3R antagonists 1–16 at a dose of 10 mg/kg. In another MES experiment in three separate groups of six rats (n = 6), H3R antagonist 4 with the most promising protection in MES model was administered at doses of 2.5, 5, or 15 mg/kg, i.p. 30–45 min before the MES challenge."}, "Hepatoma HepG2 cell line": {"system": "Hepatoma HepG2 cell line", "experiment": "Antiproliferative assay (MTS), HepG2", "format": "cell-based", "settings": "72 h incubation", "description": "as §1"}, "human H1 receptor": {"molecular_target": "T2, human H1 receptor (Homo sapiens, UniProt P35367)", "T2 construct": "purchased PerkinElmer; host or cells: CHO-K1 cells, stably transfected (membranes)", "T2 sequence (P35367 whole entry)": "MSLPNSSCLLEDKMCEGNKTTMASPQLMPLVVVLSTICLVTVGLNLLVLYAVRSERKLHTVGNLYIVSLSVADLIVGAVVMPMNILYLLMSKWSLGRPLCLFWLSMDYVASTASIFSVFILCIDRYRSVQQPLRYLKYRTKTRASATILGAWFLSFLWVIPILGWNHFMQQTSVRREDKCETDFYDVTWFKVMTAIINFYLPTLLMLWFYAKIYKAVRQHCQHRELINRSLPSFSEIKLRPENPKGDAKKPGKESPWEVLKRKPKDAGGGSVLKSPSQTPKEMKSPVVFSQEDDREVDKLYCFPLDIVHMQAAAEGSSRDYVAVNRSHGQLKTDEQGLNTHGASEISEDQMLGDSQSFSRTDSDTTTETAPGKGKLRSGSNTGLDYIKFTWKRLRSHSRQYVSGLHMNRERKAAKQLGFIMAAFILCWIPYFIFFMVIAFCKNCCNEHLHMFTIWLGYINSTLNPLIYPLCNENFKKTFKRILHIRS", "experiment": "Radioligand binding, membranes from CHO-K1 cells", "description": "Radioligand binding was performed as previously described using membranes from CHO-K1 cells stably transfected with the human H1 receptor (PerkinElmer., Waltham, MA, USA). Data were fitted to a one-site curve-fitting equation with Prism 6 (GraphPad Software, city, state, country) and Ki values were estimated from the Cheng–Prusoff equation [44]."}, "[1]": {"experiment": "Metabolic stability in rat liver microsomes", "format": "in vitro ADME", "settings": "RLMs, MS ion fragment analysis, metabolite M-I", "description": "Rat liver microsomes (RLMs) purchased form Sigma-Aldrich (St. Louis, MO, USA) were used for in vitro determination of compound 4’s metabolic stability. The NADPH regeneration system was purchased from Promega (Madison, WI, USA). All experiments were performed as described before. The reaction mixture was preincubated at 37 °C for 5 min, and then the reaction was started by adding 50 µL of NADPH regeneration system. The reaction was ended after 120 min by the addition of cold methanol (200 µL). The mixture was then centrifuged at 14,000 rpm for 15 min and the ultra-performance liquid chromatography–mass spectrometry (UPLC/MS) analysis of the supernatant was conducted. Ion fragment analyses were also performed for metabolic pathways’ determination."}, "[2]": {"settings": "10 mg/kg i.p. co-administered with RAMH 10 mg/kg i.p."}}, "note": "“Also recorded” adds a separate entry of the source."}
{"smiles": "COc1cccc2c1C(=O)c1c(O)c3c(c(O)c1C2=O)C[C@@](O)(C(=O)CO)C[C@@H]3O[C@H]1C[C@H](N)[C@H](O)[C@H](C)O1", "note": "[DX, doxorubicin]", "values": [{"measurement": "concentration with significant decrease of HEK-293 proliferation/viability", "setting": "HEK-293 cell line", "result": 1, "unit": "µM"}]}
{"smiles": "O=C(O)C(=O)O.c1ccc2cc(OCCCCCCN3CCCCCC3)ccc2c1", "note": "[Ligand 4, 1-(6-(naphthalen-2-yloxy)hexyl)azepane hydrogen oxalate]", "values": [{"measurement": "PTZ-Induced Seizure % Protection against GTCS", "setting": "PTZ-induced seizure; 2.5 mg/kg i.p.", "result": 100, "unit": "%"}, {"measurement": "PTZ-Induced Seizure Average Seizure Score", "setting": "PTZ-induced seizure; 2.5 mg/kg i.p.", "result": "2.29 ± 0.44"}, {"measurement": "PTZ-Induced Seizure % Protection against GTCS", "setting": "PTZ-induced seizure; 5 mg/kg i.p.", "result": 100, "unit": "%"}, {"measurement": "PTZ-Induced Seizure Average Seizure Score", "setting": "PTZ-induced seizure; 5 mg/kg i.p.", "result": "0.71 ± 0.31 **^,#"}, {"measurement": "PTZ-Induced Seizure % Protection against GTCS", "setting": "PTZ-induced seizure; 10 mg/kg i.p.", "result": 100, "unit": "%"}, {"measurement": "PTZ-Induced Seizure Average Seizure Score", "setting": "PTZ-induced seizure; 10 mg/kg i.p.", "result": "0.00 ± 0.00 ^&"}, {"measurement": "PTZ-Induced Seizure % Protection against GTCS", "setting": "PTZ-induced seizure; [2]", "result": 100, "unit": "%"}, {"measurement": "PTZ-Induced Seizure Average Seizure Score", "setting": "PTZ-induced seizure; [2]", "result": "0.29 ± 0.16"}, {"measurement": "protective effect in PTZ-induced seizure (in words)", "setting": "PTZ-induced seizure; 10 mg/kg i.p., observed over 30 min, vs saline-treated group", "result": "full protective activities"}, {"measurement": "PTZ-Induced Seizure (protection class)", "setting": "PTZ-induced seizure; 10 mg/kg i.p., PTZ 60 mg/kg", "result": "++ (high protective effect (THLE duration <1, seizure score 0))"}, {"measurement": "PTZ-Induced Seizure % Protection against GTCS", "setting": "PTZ-induced seizure; 15 mg/kg i.p.", "result": 100, "unit": "%"}, {"measurement": "PTZ-Induced Seizure Average Seizure Score", "setting": "PTZ-induced seizure; 15 mg/kg i.p.", "result": "0.00 ± 0.00 ^&"}, {"measurement": "IC50", "setting": "CYP2D6", "result": 670, "unit": "nM"}, {"measurement": "fold higher CYP2D6 IC50 compared with reference drug QD", "setting": "CYP2D6", "result": 67, "unit": "fold"}, {"measurement": "STR-Induced Seizure % Protection against GTCS", "setting": "STR-induced seizure", "result": 28.57, "unit": "%"}, {"measurement": "STR-Induced Seizure Average Seizure Score", "setting": "STR-induced seizure", "result": "4.57 ± 0.19"}, {"measurement": "protective effect in STR-induced seizure (in words)", "setting": "STR-induced seizure; 30 min observation, vs saline-treated group", "result": "failed to provide any appreciable protection; also recorded: failed to exhibit appreciable protection"}, {"measurement": "STR-Induced Seizure (protection class)", "setting": "STR-induced seizure; STR 3.5 mg/kg", "result": "−"}, {"measurement": "Ki", "setting": "hH4R", "result": "> 10", "unit": "µM"}, {"measurement": "MES-Induced Seizure Average THLE", "setting": "MES-induced seizure; 2.5 mg/kg i.p.", "result": "5.83 ± 1.01", "unit": "s"}, {"measurement": "MES-Induced Seizure Average THLE (s)", "setting": "MES-induced seizure; 5 mg/kg i.p.", "result": "2.50 ± 1.21 **^,# s"}, {"measurement": "MES-Induced Seizure Average THLE (s)", "setting": "MES-induced seizure; 10 mg/kg i.p.", "result": "0.57 ± 0.21 **^,$ s"}, {"measurement": "MES-Induced Seizure Average THLE", "setting": "MES-induced seizure; [2]", "result": "6.17 ± 0.59", "unit": "s"}, {"measurement": "protective effect in MES-induced seizure (in words)", "setting": "MES-induced seizure; 10 mg/kg i.p., vs saline-treated group", "result": "most promising protective effect"}, {"measurement": "MES-Induced Seizure (protection class)", "setting": "MES-induced seizure; 10 mg/kg i.p., 50 Hz, 120 mA, 1 s", "result": "++ (high protective effect (THLE duration <1, seizure score 0))"}, {"measurement": "MES-Induced Seizure Average THLE (s)", "setting": "MES-induced seizure; 15 mg/kg i.p.", "result": "3.67 ± 0.94 **^,# s"}, {"measurement": "concentration with significant decrease of HepG2 proliferation/viability", "setting": "Hepatoma HepG2 cell line", "result": 100, "unit": "µM"}, {"measurement": "Ki", "setting": "human H1 receptor", "result": 1270, "unit": "nM"}, {"measurement": "fold lower affinity at hH1- and H4Rs than at H3R", "setting": "human H1 receptor; selectivity toward H3Rs", "result": "at least 10 fold"}, {"measurement": "main metabolic pathway", "setting": "[1]", "result": "double-hydroxylation at the 6-n-hexylazepane moiety"}]}
